{"source": "patent US6339069B1", "about": "“Peptide-lipid conjugates, liposomes and lipsomal drug delivery” (Elan PharmaceuticalsTechnologies, Inc., priority 1996, dated 2002)", "key": {"[1]": {"conditions": "pH 7.4; cited from earlier work"}, "[2]": {"molecular_target": "T1, Human leukocyte elastase (HLE) (Homo sapiens, UniProt P08246)", "T1 construct": "purchased Calbiochem (San Diego, Calif.)", "T1 sequence (P08246 30-247 limits assumed)": "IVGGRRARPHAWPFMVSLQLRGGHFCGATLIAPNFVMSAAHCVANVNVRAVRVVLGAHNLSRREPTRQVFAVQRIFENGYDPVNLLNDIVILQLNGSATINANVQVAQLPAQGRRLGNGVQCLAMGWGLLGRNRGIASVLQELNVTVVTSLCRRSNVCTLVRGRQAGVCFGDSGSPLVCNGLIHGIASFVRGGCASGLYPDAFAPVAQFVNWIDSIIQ", "experiment": "Cleavage of MeO-suc-ala-ala-pro-val-DOPE by HLE (TLC, 31P-NMR)", "assay_type": "biochemical", "conditions": "2 hours", "description": "To determine if the peptide-lipid MeO-suc-ala-ala-pro-val-DOPE (SEQ ID NO:42) is also a suitable substrate for elastase mediated cleavage 50 nmol of MeO-suc-ala-ala-pro-val-DOPE liposomes (SUVs) were incubated with 0, 2.5, 5, 10, or 20 ug HLE (from Calbiochem; 20 units/mg protein; 1 unit=amount of enzyme that will hydrolyze 1.0 umol of MeO-suc-ala-ala-pro-val-pNA per min at 25 degrees C., pH 8.0) overnight at 37 degrees C. in 50 ul volume of 10 mM TES/ 154 mM NaCl/ 0.1 mM EDTA, pH 7.4, containing 1.5 mM Ca and 1.5 mM Mg.\nLipid was extracted using the Bligh-Dyer technique (chloroform/methanol/water: 2/1.7/1), dried under nitrogen, placed under high vacuum for ˜3 hours. Samples were resuspended in 5 ul chloroform and spotted onto TLC plates. 20 ug of pure DOPE was also spotted for comparison purposes. TLC solvent system was chloroform/methanol/ammonium hydroxide (65/25/5). Plates were air dried, sprayed with molybdenate blue, then charred at 180 degrees C.\nMeO-suc-ala-ala-pro-val-DOPE liposomes were incubated with 0 or 5 ug HLE for 1, 2, 4 hours, or overnight and processed as above. The peptide was cleaved by HLE in as little as 1 hour at 37 degrees C.\nThe conversion of MeO-suc-AAPV-DOPE to DOPE (SEQ ID NO:42) was also quantitated by ^31P-NMR. […] A small shoulder that may indicate an incomplete peptide cleavage product was also observed near the original peptide-lipid peak. Treatment with 5 micrograms of elastase/100 nmol lipid yielded 20% DOPE. Longer incubation may have lead to further digestion, though multiple lamellae and/or the surface charge of the liposome may limit the ultimate amount digested. The maximum exposed peptide-lipid for intact liposomes would occur with unilamellar vesicles. Assuming only the outer leaflet peptide-lipid in unilamellar vesicles is available for digestion, the minimal percentage conversion of exposed MeO-suc-AAPV-DOPE (SEQ ID NO:42) to DOPE in the outer leaflet lipid of this preparation was 40% (FIG. 6, dotted line). If the average number of lamellae were greater than one, the percentage conversion was even higher. […]"}, "Human leukocyte elastase": {"molecular_target": "T2, Human leukocyte elastase (Homo sapiens, UniProt P08246)", "T2 construct": "purchased Calbiochem (San Diego, Calif.)", "T2 sequence (P08246 30-247 limits assumed)": "T1 sequence (P08246 30-247 limits assumed)", "experiment": "Elastase-mediated cleavage of N-Ac-AA-DOPE to DOPE (TLC, HPLC)", "assay_type": "biochemical", "conditions": "overnight, 37° C.", "description": "Cleavage of N-Ac-ala-ala-DOPE to DOPE by elastase was monitored by thin layer chromatography (TLC). The chemical structure of N-Ac-ala-ala-DOPE and its postulated scheme of conversion to DOPE by enzymatic cleavage is shown in FIG. 1. 100-200 nmol of N-Ac-AA-DOPE SUVs were incubated with 1 mg enzyme in 0.1 ml overnight at 37° C. Human leukocyte elastase was purchased from Calbiochem (San Diego, Calif.). Lipid was extracted by organic phase separation (Bligh and Dyer, 1959) twice. Collected lipid was dried under N^2 stream and exposed to vacuum for 4 hours-overnight. Samples were resuspended in chloroform and spotted onto TLC plates. […]\nElastase and proteinase K mediated cleavage of N-Ac-AA-DOPE was quantitated using liposomes composed of N-Ac-AA-DOPE and DOTAP, a positively charged lipid. […] After treatment with elastase or proteinase K the reduction in the amount of N-Ac-AA-DOPE was monitored by HPLC (FIG. 4). […]\nCollected lipid was dried under a N2 stream and exposed to vacuum for 4 hours-overnight. […] The N-Ac-AA-DOPE peak was detected using a gradient of 59-55% isopropanol:4-8% water. Flow rate was 1.5 ml/min, column temperature was set at 45° C., and peaks were detected by a UV detector set at 205 nm. Lipid peaks were quantitated in comparison to standard curves generated by injecting 5-200 nmol of DOTAP or N-Ac-AA-DOPE and monitoring 205 nm signal. […]"}, "S. griseus (“pronase”)": {"system": "S. griseus (“pronase”)", "experiment": "Cleavage of N-Ac-ala-ala-DOPE by pronase (HPLC)", "assay_type": "biochemical", "conditions": "DOTAP/N-acetyl-ala-ala-PE 1:1 SUVs, 100 nmole, 0.5 or 1.0 mg enzyme, overnight, 37 degrees C.", "description": "(§1) To compare the effect of different proteolytic enzymes on the cleavage of N-acetyl-ala-ala-DOPE, small unilamellar liposomes composed of DOTAP and N-acetyl-ala-ala-PE (1:1 molar ratio, 100 nmole), prepared as described hereinabove, were incubated overnight at 37 degrees C. with either 0.5 mg (experiment 1) or 1.0 mg (experiment 2) of: S. caespitosus protease, S. priseus (“pronase”), peptidase, chymotrypsin, trypsin, protease type I, proteinase K, or with no enzyme added.\n(§2) Subsequently, lipid was extracted from these preparations by organic phase separation, and dried under vacuum. The dried lipid was suspended in ethanol, and the resulting lipidic solution was then injected into a normal phase silica column. Analysis was by HPLC, as described above. Lipid peaks were quantitated, and the amount of lipid cleavage was calculated as a percentage of the starting lipid."}, "[3]": {"system": "S. caespitosus protease, peptidase, chymotrypsin, trypsin, protease type I", "experiment": "Cleavage of N-Ac-ala-ala-DOPE by other proteases (HPLC)", "assay_type": "biochemical", "conditions": "DOTAP/N-acetyl-ala-ala-PE 1:1 SUVs, 100 nmole, 0.5 or 1.0 mg enzyme, overnight, 37 degrees C.", "description": "as §1, §2"}, "proteinase K": {"molecular_target": "proteinase K (Parengyodontium album, UniProt P06873)", "sequence (P06873 106-384, species assumed)": "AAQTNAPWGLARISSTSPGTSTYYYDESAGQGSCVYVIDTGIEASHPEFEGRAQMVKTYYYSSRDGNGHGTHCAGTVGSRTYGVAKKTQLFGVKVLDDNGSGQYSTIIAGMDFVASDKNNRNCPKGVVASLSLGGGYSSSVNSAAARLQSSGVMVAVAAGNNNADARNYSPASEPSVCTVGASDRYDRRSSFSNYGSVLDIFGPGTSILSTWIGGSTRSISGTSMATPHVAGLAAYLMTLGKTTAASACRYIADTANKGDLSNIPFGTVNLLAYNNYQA", "experiment": "Proteinase K-mediated cleavage of N-Ac-AA-DOPE (TLC, 31P-NMR, HPLC)", "assay_type": "biochemical", "description": "Several proteases were tested to determine whether an enzyme with similar substrate specificity could be used as a model for elastase mediated cleavage of N-Ac-AA-DOPE. Proteinase K is a serine protease that, similarly to elastase, can cleave at peptide bonds C-terminal to aliphatic residues.\nSubsequently, proteinase K, which has a similar substrate specificity to elastase, was used to model the elastase effect because of the lower cost of the enzyme. Referring to FIG. 3, samples A and C contained pure N-acetyl-ala-ala-DOPE and pure DOPE, respectively; sample B consisted of multilamellar liposomes, prepared as described hereinbelow, composed of pure N-acetyl-ala-ala-DOPE (2 μmole total phospholipid), which were incubated in 200 μl of 154 mM NaCl, 10 mM TES, 0.1 mM EDTA at pH 7.4 and 37 ° C. for two hours in the presence of 1 mg of proteinase K. After the first incubation, another equal amount of proteinase K was added and the sample was incubated for another 2 hours. All three samples were dissolved into a final concentration of 5% deoxycholate, 50 mM EDTA and 10 mM HEPES at pH 8 for proton decoupled ^31P NMR.\nThe conversion of N-Ac-AA-DOPE to DOPE was also monitored by ^31P-NMR analysis. N-Ac-AA-DOPE LUVs were prepared and treated with or without proteinase K (1.5 mg protein/100 nmol lipid) overnight at 37° C. Samples were mixed with buffer (10% deoxycholate, 100 mM EDTA, 20 mM Hepes) and deuterium oxide (Cambridge Isotope Laboratories, Woburn, Mass.) (1:4:2) and transferred to 5 mm NMR tubes. Samples were monitored at room temperature in a Bruker AC300 spectrometer operating at 121.5 MHz, with […] 90° radio frequency pulse for proton decoupling and set to 2 sec interpulse delay to avoid signal saturation. Sweep width was set at 50 kHz. 1 Hz line broadening was applied to all spectra.\nElastase and proteinase K mediated cleavage of N-Ac-AA-DOPE was quantitated using liposomes composed of N-Ac-AA-DOPE and DOTAP, a positively charged lipid. DOTAP was included to provide a counterbalancing positive charge, and was used as a standard by which different samples could be normalized and compared. After treatment with elastase or proteinase K the reduction in the amount of N-Ac-AA-DOPE was monitored by HPLC (FIG. 4). Liposomes composed of DOTAP/N-Ac-AA-DOPE (1:1) were incubated with enzyme under given conditions. Lipid was extracted by the Bligh-Dyer procedure twice.\nCollected lipid was dried under a N2 stream and exposed to vacuum for 4 hours-overnight. Samples were resuspended in 100% ethanol and injected in 30 ul aliquots into Spherisorb silica columns (150×4.6 mm, […], Keystone Scientific). HPLC was performed using a hexane:isopropanol:water:TFA mobile phase. Hexane and TFA were held constant at 37% and 0.2%, respectively. The N-Ac-AA-DOPE peak was detected using a gradient of 59-55% isopropanol:4-8% water. Flow rate was 1.5 ml/min, column temperature was set at 45° C., and peaks were detected by a UV detector set at 205 nm. Lipid peaks were quantitated in comparison to standard curves generated by injecting 5-200 nmol of DOTAP or N-Ac-AA-DOPE and monitoring 205 nm signal. Percent cleavage was calculated by normalizing peaks to DOTAP, then determining the decrease in N-Ac-AA-DOPE peak size relative to starting amounts.\nTo verify that the cleavage of N-Ac-AA-DOPE was due to proteinase K enzymatic activity, liposomes were treated with heat inactivated proteinase K. Proteinase K was inactivated by heating at 95° C. for 1 hour, after which the enzyme was incapable of cleaving the chromogenic substrate N-Ac-AAA-pNA. […] In these experiments liposomes, prepared as described hereinbelow, were composed of 100% N-Acetyl-ala-ala-DOPE and were then extruded to approximately 0.2 microns diameter. Fifty micrograms of liposomal lipid was incubated alone or with one unit of HLE overnight at 37° C. […]"}}, "data": [{"smiles": "CCCCCCCC/C=C\\CCCCCCCC(=O)OCC(CN(C)C)OC(=O)CCCCCCC/C=C\\CCCCCCCC", "note": "(centres unmarked) [DODAP, 1-N,N-dimethylamino dioleoyl propane]", "values": [{"measurement": "DODAP population positively charged", "setting": "[1]", "result": 20, "unit": "%"}]}, {"smiles": "CCCCCCCC/C=C\\CCCCCCCC(=O)OC[C@H](COP(=O)(O)OCCNC(=O)[C@@H](NC(=O)[C@@H]1CCCN1C(=O)[C@H](C)NC(=O)[C@H](C)NC(=O)CCC(=O)OC)C(C)C)OC(=O)CCCCCCC/C=C\\CCCCCCCC", "note": "[MeO-suc-AAPV-DOPE, 1,2-Dioleoyl-sn-glycero-3-phosphoethanolamido-val-pro-ala-ala-sucMeO]", "values": [{"measurement": "DOPE yielded from MeO-suc-AAPV-DOPE (31P-NMR)", "setting": "[2]; DODAP/MeO-suc-AAPV-DOPE 1:1 vesicles, 5 micrograms of elastase/100 nmol lipid, 37° C.", "result": 20, "unit": "%"}, {"measurement": "Available peptide-lipid cleaved", "setting": "[2]; assuming approximately 2.5 lamellae per vesicle, 5 micrograms elastase/100 nmol lipid", "result": 100, "unit": "%"}, {"measurement": "Minimal percentage conversion of exposed MeO-suc-AAPV-DOPE to DOPE in the outer leaflet", "setting": "[2]; assuming unilamellar vesicles, 5 micrograms elastase/100 nmol lipid", "result": "≥ 40", "unit": "%"}]}, {"smiles": "CCCCCCCC/C=C\\CCCCCCCC(=O)OCC(COP(=O)(O)OCCNC(=O)[C@H](C)NC(=O)[C@H](C)NC(C)=O)OC(=O)CCCCCCC/C=C\\CCCCCCCC", "note": "(some centres unmarked) [N-Ac-AA-DOPE, N-acetyl-alanyl-alanyl-dioleoyl phosphatidylethanolamine]", "values": [{"measurement": "Cleavage of N-Ac-AA-DOPE by elastase (HPLC)", "setting": "Human leukocyte elastase; DOTAP/N-Ac-AA-DOPE (1:1) liposomes, 1 mg protease/100 nmol lipid", "result": "cleaved N-Ac-AA-DOPE to a similar extent"}, {"measurement": "Cleavage of N-Ac-AA-DOPE to DOPE by elastase (TLC)", "setting": "Human leukocyte elastase; N-Ac-AA-DOPE SUVs, 1 mg enzyme in 0.1 ml", "result": "generated a product corresponding to DOPE"}, {"measurement": "Cleavage of N-Ac-ala-ala-DOPE from liposomes by pronase (HPLC)", "setting": "S. griseus (“pronase”)", "result": "effected cleavage"}, {"measurement": "Cleavage of N-Ac-ala-ala-DOPE from liposomes by other proteases (HPLC)", "setting": "[3]", "result": "did not cleave"}, {"measurement": "Cleavage of N-Ac-AA-DOPE by proteinase K (HPLC)", "setting": "proteinase K; DOTAP/N-Ac-AA-DOPE (1:1) liposomes, 1 mg protease/100 nmol lipid, overnight, 37° C.", "result": "cleaved N-Ac-AA-DOPE to a similar extent"}, {"measurement": "Cleavage of N-Ac-AA-DOPE by heat inactivated proteinase K (HPLC)", "setting": "proteinase K; DOTAP/N-Ac-AA-DOPE liposomes, proteinase K inactivated 95° C., 1 hour", "result": "did not result in any cleavage"}, {"measurement": "Cleavage of N-Ac-ala-ala-DOPE from liposomes by proteinase K (HPLC)", "setting": "proteinase K; DOTAP/N-acetyl-ala-ala-PE 1:1 SUVs, 100 nmole, 0.5 or 1.0 mg enzyme, overnight, 37 degrees C.", "result": "effected cleavage"}, {"measurement": "Conversion of N-Ac-AA-DOPE to DOPE (31P-NMR)", "setting": "proteinase K; LUVs, proteinase K 1.5 mg protease/100 nmol lipid, overnight, 37° C.", "result": "appearance of a peak 0.3 ppm upfield from N-Ac-AA-DOPE, corresponding with pure DOPE"}, {"measurement": "Cleavage of N-Ac-AA-DOPE by proteinase K (TLC)", "setting": "proteinase K; N-Ac-AA-DOPE liposomes, 1 mg enzyme/100 nmol lipid, overnight, 37° C.", "result": "the peptide-lipid was cleaved and DOPE was generated"}, {"measurement": "N-acetyl-ala-ala-DOPE converted to pure DOPE (31P NMR integration)", "setting": "proteinase K; multilamellar liposomes of pure conjugate, 1 mg proteinase K 2 hours + equal amount another 2 hours, pH 7.4, 37° C.", "result": "approximately 20%"}]}]}
